From ChEMBL document CHEMBL1142367, “1H-Pyrazolo[3,4-g]hexahydro-isoquinolines as selective glucocorticoid receptor antagonists with high functional activity” (Bioorg Med Chem Lett, 2008)

Assays:
[1] = Oral bioavailability in rat; type: ADME, organism-based; conditions: in vivo
[2] = molecular target: T1, Glucocorticoid receptor (Homo sapiens, UniProt P04150); assay: Displacement of [3H]dexamethasone from human recombinant GR
T1 sequence (P04150 whole entry): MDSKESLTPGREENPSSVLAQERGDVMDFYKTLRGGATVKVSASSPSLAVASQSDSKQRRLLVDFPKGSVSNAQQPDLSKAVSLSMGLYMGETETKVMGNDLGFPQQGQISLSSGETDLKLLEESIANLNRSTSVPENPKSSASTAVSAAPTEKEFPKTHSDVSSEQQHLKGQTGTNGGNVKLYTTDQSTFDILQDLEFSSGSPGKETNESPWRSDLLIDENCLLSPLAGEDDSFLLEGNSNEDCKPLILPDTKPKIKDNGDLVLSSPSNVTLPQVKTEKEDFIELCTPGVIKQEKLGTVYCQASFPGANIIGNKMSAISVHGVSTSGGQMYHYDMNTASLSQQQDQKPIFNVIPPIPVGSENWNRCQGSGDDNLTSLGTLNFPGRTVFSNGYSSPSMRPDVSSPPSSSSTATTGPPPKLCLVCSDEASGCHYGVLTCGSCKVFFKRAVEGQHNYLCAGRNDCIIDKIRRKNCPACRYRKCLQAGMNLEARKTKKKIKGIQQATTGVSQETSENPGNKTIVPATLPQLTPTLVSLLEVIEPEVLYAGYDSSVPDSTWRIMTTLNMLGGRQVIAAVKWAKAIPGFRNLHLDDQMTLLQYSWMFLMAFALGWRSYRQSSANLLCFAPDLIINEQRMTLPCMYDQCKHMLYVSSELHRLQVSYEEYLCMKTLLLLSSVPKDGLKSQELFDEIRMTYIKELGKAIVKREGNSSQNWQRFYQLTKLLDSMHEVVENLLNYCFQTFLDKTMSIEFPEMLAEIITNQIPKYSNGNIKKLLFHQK

[3] = molecular target: T1, Glucocorticoid receptor; assay: Antagonist activity at GR in SW1353/MMTV5 cells assessed as inhibition of dexamethasone-induced luciferase expression; type: functional, cell-based
[4] = Metabolic stability in human liver microsomes after 30 mins; type: ADME, Microsome; conditions: read-out: Stability
[5] = Cmax in rat at 5 mg/kg, po; type: ADME, organism-based; parameters: dose 5 mg/kg, route oral; conditions: in vivo
[6] = system: Rattus norvegicus; assay: AUC in rat at 5 mg/kg, po; type: ADME, organism-based, Plasma; parameters: dose 5 mg/kg, route oral; conditions: in vivo
[7] = Half life in rat at 5 mg/kg, po; type: ADME, organism-based; parameters: dose 5 mg/kg, route oral; conditions: in vivo
[8] = Oral bioavailability in rat at 5 mg/kg; type: ADME, organism-based; conditions: in vivo
[9] = Ratio of drug level in brain to plasma in rat at 5 mg/kg, po; type: ADME, organism-based; parameters: dose 5 mg/kg, route oral; conditions: read-out: BPR
[10] = system: Canis familiaris; assay: AUC in dog at […], po; type: ADME, organism-based, Canis lupus familiaris, Plasma; parameters: dose 2.5 mg/kg, route oral; conditions: in vivo
[11] = Half life in dog at […], po; type: ADME, organism-based, Canis lupus familiaris; parameters: dose 2.5 mg/kg, route oral; conditions: in vivo
[12] = Oral bioavailability in dog at […]; type: ADME, organism-based, Canis lupus familiaris; conditions: in vivo
[13] = Cmax in dog at […], po; type: ADME, organism-based, Canis lupus familiaris; parameters: dose 2.5 mg/kg, route oral; conditions: in vivo

bioavailability [1] [%]	Ki [2] [nM]	Ki [3] [nM]	SMILES	other results
0	0.7	0.6	COCCOC[C@]12Cc3cnn(-c4ccc(F)cc4)c3C=C1CCN(S(=O)(=O)c1ccc(C(C)(C)C)cc1)C2	
0	2.4	16	CCNC[C@]12Cc3cnn(-c4ccc(F)cc4)c3C=C1CCN(S(=O)(=O)c1ccc(C(C)(C)C)cc1)C2	
	0.6	5.2	COCCOC[C@]12Cc3cnn(-c4ccc(F)cc4)c3C=C1CCN(S(=O)(=O)c1ccc(F)cc1)C2	remaining at 0.5 h [4]: 7%
5	2.1	17	CC(C)NC[C@]12Cc3cnn(-c4ccc(F)cc4)c3C=C1CCN(S(=O)(=O)c1ccc(C(C)(C)C)cc1)C2	
	0.9	7.1	CC(C)(C)c1ccc(S(=O)(=O)N2CCC3=Cc4c(cnn4-c4ccc(F)cc4)C[C@]3(CN3CCOCC3)C2)cc1	Cmax [5]: 75 ng/mL; AUC [6]: 0.302 µg/h/mL; half-life [7]: 2 h; bioavailability [8]: 10%; Kp [9]: 0.1
0	1	3.1	COCCNC[C@]12Cc3cnn(-c4ccc(F)cc4)c3C=C1CCN(S(=O)(=O)c1ccc(C(C)(C)C)cc1)C2	
	1.4	33	COC[C@]12Cc3cnn(-c4ccc(F)cc4)c3C=C1CCN(S(=O)(=O)c1ccc(F)cc1)C2	AUC [10]: 1.676 µg/h/mL; half-life [11]: 4.2 h; bioavailability [12]: 54%; remaining at 0.5 h [4]: 57%; Cmax [5]: 106 ng/mL; AUC [6]: 0.621 µg/h/mL; half-life [7]: 2.1 h; bioavailability [8]: 22%; Kp [9]: 1.1; Cmax [13]: 381 ng/mL
	0.8	28	COC[C@]12Cc3cnn(-c4ccc(F)cc4)c3C=C1CCN(S(=O)(=O)c1ccc(C(F)(F)F)cc1)C2	AUC [10]: 3.638 µg/h/mL; half-life [11]: 6.7 h; bioavailability [12]: 58%; Cmax [5]: 163 ng/mL; AUC [6]: 0.966 µg/h/mL; half-life [7]: 3.4 h; bioavailability [8]: 16%; Kp [9]: 0.83; Cmax [13]: 647 ng/mL
	0.8	7.7	COC[C@]12Cc3cnn(-c4ccc(F)cc4)c3C=C1CCN(S(=O)(=O)c1ccc(C(C)(C)C)cc1)C2	Cmax [5]: 94 ng/mL; AUC [6]: 0.43 µg/h/mL; half-life [7]: 2.9 h; bioavailability [8]: 11%; Kp [9]: 0.1
2	0.8	5.1	CC(C)(C)c1ccc(S(=O)(=O)N2CCC3=Cc4c(cnn4-c4ccc(F)cc4)C[C@]3(COCCC#N)C2)cc1	
0	1.2	6.9	CN(C)C[C@]12Cc3cnn(-c4ccc(F)cc4)c3C=C1CCN(S(=O)(=O)c1ccc(C(C)(C)C)cc1)C2	
	26	> 1000	O=S(=O)(N1CCOCC1)N1CCC2=Cc3c(cnn3-c3ccc(F)cc3)CC2(Cc2ccc(F)cc2)C1 (racemic)	
	13	> 1000	CS(=O)(=O)N1CCC2=Cc3c(cnn3-c3ccc(F)cc3)CC2(Cc2ccc(F)cc2)C1 (racemic)	
	2.8	28	CC(C)(C)c1ccc(S(=O)(=O)N2CCC3=Cc4c(cnn4-c4ccc(F)cc4)C[C@]3(CNCCO)C2)cc1	
	1.2	53	CC(C)(C)c1ccc(S(=O)(=O)N2CCC3=Cc4c(cnn4-c4ccc(F)cc4)C[C@]3(C)C2)cc1	AUC [10]: 1.684 µg/h/mL; half-life [11]: 4.2 h; bioavailability [12]: 26%; Cmax [5]: 199 ng/mL; AUC [6]: 1.009 µg/h/mL; half-life [7]: 2.7 h; bioavailability [8]: 13%; Kp [9]: 0.07; Cmax [13]: 524 ng/mL
	1	20	COC[C@]12Cc3cnn(-c4ccc(F)cc4)c3C=C1CCN(S(=O)(=O)c1ccccc1)C2	AUC [10]: 0.894 µg/h/mL; half-life [11]: 5.9 h; bioavailability [12]: 20%; Cmax [5]: 23 ng/mL; AUC [6]: 0.112 µg/h/mL; half-life [7]: 3.6 h; bioavailability [8]: 3%; Kp [9]: 0.75; Cmax [13]: 258 ng/mL
	8.6	77	CC(C)(C)c1ccc(S(=O)(=O)N2CCC3=Cc4c(cnn4-c4ccc(F)cc4)C[C@]3(COCCN3CCCCC3)C2)cc1	
	2.6	29	CN(C)C[C@]12Cc3cnn(-c4ccc(F)cc4)c3C=C1CCN(S(=O)(=O)c1ccc(F)cc1)C2	
	2.2	36	O=S(=O)(c1ccccc1)N1CCC2=Cc3c(cnn3-c3ccc(F)cc3)CC2(Cc2ccc(F)cc2)C1 (racemic)	
	3.7	178	COc1ccc(S(=O)(=O)N2CCC3=Cc4c(cnn4-c4ccc(F)cc4)C[C@]3(C)C2)cc1	
	6.7	85	CN1CCN(C[C@]23Cc4cnn(-c5ccc(F)cc5)c4C=C2CCN(S(=O)(=O)c2ccc(C(C)(C)C)cc2)C3)CC1	
	3.8	60	CN(C)CCNC[C@]12Cc3cnn(-c4ccc(F)cc4)c3C=C1CCN(S(=O)(=O)c1ccc(C(C)(C)C)cc1)C2	
	1.4	26	O=S(=O)(c1ccc(F)cc1)N1CCC2=Cc3c(cnn3-c3ccc(F)cc3)CC2(Cc2ccc(F)cc2)C1 (racemic)	
4	1.4	11	CC(C)(C)c1ccc(S(=O)(=O)N2CCC3=Cc4c(cnn4-c4ccc(F)cc4)C[C@]3(CN3CCC3)C2)cc1	
	1.6	8	O=S(=O)(c1ccc(F)cc1)N1CCC2=Cc3c(cnn3-c3ccc(F)cc3)C[C@]2(CN2CCCC2)C1	
8			COCCOC[C@]12Cc3cnn(-c4ccc(F)cc4)c3C=C1CCN(S(=O)(=O)c1ccc(C)cc1)C2	

SMILES	bioavailability [1] [%]	Ki [2] [nM]	Ki [3] [nM]	other results
CC(C)(C)c1ccc(S(=O)(=O)N2CCC3=Cc4c(cnn4-c4ccc(F)cc4)C[C@]3(CN3CCCC3)C2)cc1	2	1.1	3.4	
